Each structure is given as a SMILES string. ≈ marks a conversion by molar mass, not a printed value. Like-named read-outs stand apart in the source and are kept apart here.

Holding throughout (assay type): cell-based
The subject of experiment [1] is Yersinia enterocolitica ATCC 23715. The experiment can be described thus: MIC, agar dilution drug sensitivity test. The following applies: ATCC23715, Table 1.
Experiment [2] relates to Streptococcus pneumoniae ATCC 49619. The experiment can be described thus: MIC, agar dilution drug sensitivity test. Particulars: read-out: MIC.
Experiment [3] concerns Proteus vulgaris ATCC 1331. The experiment can be described thus: MIC, agar dilution drug sensitivity test. The following applies: Proteus vulgaris, ATCC1331, Proteus vulgaris ATCC 1331, read-out: MIC.
In experiment [4] the test system is Morganella morganii MMX 6123. The experiment can be described thus: MIC, agar dilution drug sensitivity test. The following applies: MMX6123, Table 1.
Experiment [5] relates to Staphylococcus saprophyticus JMI 2016_703. The experiment can be described thus: MIC, agar dilution drug sensitivity test. The following applies: Aerobic.
Experiment [6] relates to Eggerthella lenta ATCC 43055. The experiment can be described thus: MIC, agar dilution drug sensitivity test. The following applies: ATCC43055, Table 1.
Experiment [7] has as its system Klebsiella oxytoca JMI 933995. The experiment can be described thus: MIC, agar dilution drug sensitivity test. The following applies: JMI933995, Table 1.
For experiment [8], the system named is Alcaligenes faecalis JMI 940880. The experiment can be described thus: MIC, agar dilution drug sensitivity test. The following applies: JMI940880, Aerobic.
Experiment [9] concerns Bacteroides vulgatus JMI 927011. The experiment can be described thus: MIC, agar dilution drug sensitivity test. The following applies: Phocaeicola vulgatus, JMI927011.
Experiment [10] concerns Fusobacterium necrophorum ATCC 25286. The experiment can be described thus: MIC, agar dilution drug sensitivity test. Particulars: ATCC25286, Table 1.
Experiment [11] has as its system Streptococcus salivarius ATCC 25975. The experiment can be described thus: MIC, agar dilution drug sensitivity test. Particulars: Streptococcus salivarius, ATCC25975, Streptococcus salivarius ATCC 25975, read-out: MIC.
Experiment [12] concerns Actinomyces naeslundii JMI 534283. The experiment can be described thus: MIC, agar dilution drug sensitivity test. Particulars: JMI534283, Aerobic.
Experiment [13] has as its system Proteus mirabilis JMI 933599. The experiment can be described thus: MIC, agar dilution drug sensitivity test. The following applies: JMI933599, Table 1.
The test system of experiment [14] is Proteus vulgaris MMX 6454. The experiment can be described thus: MIC, agar dilution drug sensitivity test. Particulars: MMX6454, Table 1.
Experiment [15] has as its system Clostridium difficile ATCC 700057. The experiment can be described thus: MIC, agar dilution drug sensitivity test. Particulars: Clostridioides difficile, ATCC700057.
Experiment [16] deals with Clostridium perfringens ATCC 13124. The experiment can be described thus: microbe, parasite or virus in culture. The following applies: ATCC13124.
Where [17] appears, read: ATCC49619, Streptococcus pneumoniae ATCC 49619, Aerobic.
[18] abbreviates: ATCC49619, Streptococcus pneumoniae ATCC 49619, Anaerobic.

As to `O=C(O)c1cn(C2CC2)c2cc(N3CCNCC3)c(F)cc2c1=O` [Ciprofloxacin, ciprofloxacin], the MIC in experiment [1] is 0.015 µg/mL (≈ 0.0453 µM); in experiment [2] (setting [17]) it was 1 µg/mL (≈ 3.02 µM); in experiment [2] (setting [18]), 2 µg/mL (≈ 6.04 µM); in experiment [3] (Aerobic), 0.03 µg/mL (≈ 0.0905 µM); in experiment [3] (Anaerobic), 0.03 µg/mL (≈ 0.0905 µM); in experiment [4] it was 1 µg/mL (≈ 3.02 µM). The MIC was 1 µg/mL (≈ 3.02 µM) in [5]; 1 µg/mL (≈ 3.02 µM) in experiment [6]; 0.015 µg/mL (≈ 0.0453 µM) in experiment [7]; 1 µg/mL (≈ 3.02 µM) in [8]; above 16 µg/mL in [9]; 1 µg/mL (≈ 3.02 µM) in [10]. The MIC in [11] (Aerobic) is 1 µg/mL (≈ 3.02 µM); in [11] (Anaerobic) it was 2 µg/mL (≈ 6.04 µM); in [12] it was 2 µg/mL (≈ 6.04 µM); in experiment [13], 0.0015 µg/mL (≈ 0.00453 µM); in experiment [14] it was 0.12 µg/mL (≈ 0.362 µM).
As to `CO[C@H]1/C=C/O[C@@]2(C)Oc3c(C)c(O)c4c(O)c(c(/C=N/N5CCC(N(C)C6([C@@H]7CCN(c8c(F)cn9c(=O)c(C(=O)O)cc(C%10CC%10)c9c8C)C7)CC6)CC5)c(O)c4c3C2=O)NC(=O)/C(C)=C\C=C\[C@H](C)[C@H](O)[C@@H](C)[C@@H](O)[C@@H](C)[C@H](OC(C)=O)[C@@H]1C` [Compound I, (R)-3-[(4-{1-[1-(3-carboxy-1-cyclopropyl-7-fluoro-9-methyl-4-oxo-4H-quinolizine-8-yl)-pyrrolidin-3-yl-cyclopropyl]-methylamino}-piperidin-1-ylimino)-methylene]-rifamycin SV], the MIC in experiment [1] was 0.12 µg/mL (≈ 0.0996 µM); in experiment [2] (setting [17]), 0.06 µg/mL (≈ 0.0498 µM); in experiment [2] (setting [18]), 0.06 µg/mL (≈ 0.0498 µM); in experiment [3] (Aerobic) it was 0.5 µg/mL (≈ 0.415 µM); in [3] (Anaerobic), above 64 µg/mL; in [4], 16 µg/mL (≈ 13.3 µM). Further, the MIC was 0.5 µg/mL (≈ 0.415 µM) in experiment [5]; 0.06 µg/mL (≈ 0.0498 µM) in experiment [6]; 4 µg/mL (≈ 3.32 µM) in experiment [7]; 32 µg/mL (≈ 26.5 µM) in experiment [8]; 16 µg/mL (≈ 13.3 µM) in [9]; 0.12 µg/mL (≈ 0.0996 µM) in experiment [10]. Besides, the MIC is 0.5 µg/mL (≈ 0.415 µM) in [11] (Aerobic); above 64 µg/mL in experiment [11] (Anaerobic); 0.004 µg/mL (≈ 0.00332 µM) in experiment [15]; 0.03 µg/mL (≈ 0.0249 µM) in experiment [12]; 0.03 µg/mL (≈ 0.0249 µM) in experiment [16]; 8 µg/mL (≈ 6.64 µM) in experiment [13]. This molecule gave an MIC in experiment [14] of 2 µg/mL (≈ 1.66 µM).

These data come from US20200061047A1, “NEW USE OF RIFAMYCIN-QUINOLIZIDONE DUAL-ACTION MOLECULE” (TenNor Therapeutics Limited, priority 2017, published 2020).
